Drawing on patent publication US6906095B2, “Indolylalkylidenehydrazine-carboximidamide derivatives as 5-hydroxytryptamine-6 ligands” (Wyeth, priority 2002, dated 2005), this text covers Ki and inhibition for 27 molecules.

One may read the Ki as the dissociation constant of the complex between target and ligand, obtained from inhibition or displacement. By inhibition is commonly meant the change of the read-out against control, counted positive when it falls.

One assay deals with T1, human cloned 5-HT6 receptors (Homo sapiens, UniProt P50406).
T1 construct: expressed in transfected cells; host or cells: Hela cells
T1 sequence (P50406 whole entry): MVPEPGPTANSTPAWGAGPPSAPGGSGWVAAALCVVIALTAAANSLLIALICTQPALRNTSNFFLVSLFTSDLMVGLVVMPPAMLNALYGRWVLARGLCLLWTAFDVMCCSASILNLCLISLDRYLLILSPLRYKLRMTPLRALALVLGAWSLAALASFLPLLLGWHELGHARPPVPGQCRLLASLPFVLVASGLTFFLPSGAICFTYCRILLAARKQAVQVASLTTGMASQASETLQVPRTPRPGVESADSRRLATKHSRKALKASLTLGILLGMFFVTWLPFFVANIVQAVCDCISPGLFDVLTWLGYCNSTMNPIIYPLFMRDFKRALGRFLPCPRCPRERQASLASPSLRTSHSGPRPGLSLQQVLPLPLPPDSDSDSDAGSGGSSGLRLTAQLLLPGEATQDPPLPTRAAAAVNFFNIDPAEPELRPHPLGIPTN
Nature of the assay: 5-HT6 binding affinity, [3H]-LSD displacement in membranes of Hela cells.
Details: not given
The procedure:
The affinity of test compounds for the serotonin 5-HT6 receptor is evaluated in the following manner. Cultured Hela cells expressing human cloned 5-HT6 receptors are harvested and centrifuged at low speed (1,000×g) for 10.0 min to remove the culture media. The harvested cells are suspended in half volume of fresh physiological phosphate buffered saline solution and recentrifuged at the same speed. This operation is repeated. The collected cells are then homogenized in ten volumes of 50 mM Tris.HCl (pH 7.4) and 0.5 mM EDTA. The homogenate is centrifuged at 40,000×g for 30.0 min and the precipitate is collected. The obtained pellet is resuspended in 10 volumes of Tris.HCl buffer and recentrifuged at the same speed. The final pellet is suspended in a small volume of Tris.HCl buffer and the tissue protein content is determined in aliquots of 10-25 μl volumes. Bovine Serum Albumin is used as the standard in the protein determination according to the method described in Lowry et al., J. Biol. Chem., 193:265 (1951). The volume of the suspended cell membranes is adjusted to give a tissue protein concentration of 1.0 mg/ml of suspension. The prepared membrane suspension (10 times concentrated) is aliquoted in 1.0 ml volumes and stored at −70° C. until used in subsequent binding experiments.
The reaction is allowed to proceed in the dark for 120 min at room temperature, at which time, the bound ligand-receptor complex is filtered off on a 96 well unifilter with a Packard Filtermate® 196 Harvester. The bound complex caught on the filter disk is allowed to air dry and the radioactivity is measured in a Packard TopCount® equipped with six photomultiplier detectors, after the addition of 40.0 μl Microscint®-20 scintillant to each shallow well. The unifilter plate is heat-sealed and counted in a PackardTopCount® with a tritium efficiency of 31.0%.
Specific binding to the 5-HT6 receptor is defined as the total radioactivity bound less the amount bound in the presence of 10.0 μM unlabeled methiothepin. Binding in the presence of varying concentrations of test compound is expressed as a percentage of specific binding in the absence of test compound. The results are plotted as logit % bound versus log concentration of test compound. Nonlinear regression analysis of data points with a computer assisted program Prism® yields both the IC50 and the Ki values of test compounds with 95% confidence limits.
The amount of displacement by the test compound is given in percent (%) inhibition and is derived from the following equation: [formula] where B0 is the amount of CPM bound in the presence of the testing agent. NSB represents the CPM bound in the presence of a saturating concentration of a displacer and TB represents the total amount of CPM bound at zero (0) concentration of test compound.
Alternatively, a linear regression line of decline of data points is plotted, from which the IC50 value can be read off and the Ki value determined by solving the following equation: [formula] where L is the concentration of the radioactive ligand used and KD is the dissociation constant of the ligand for the receptor, both expressed in nM.
With `COc1ccc(S(=O)(=O)n2cc(C(C)=NNC(=N)N)c3ccccc32)cc1OC` [Example 69, 2-(1-{1-[(3,4-dimethoxyphenyl)sulfonyl]-1H-indol-3-yl}ethylidene)hydrazinecarboximidamide], the inhibitory constant (Ki) stood at 12 nM.

The same assay, now with this note: test compound dose 10 nM; [3H]-LSD 3.0 nM.
Regarding `N=C(N)NN=C(c1cn(S(=O)(=O)c2ccc3ccccc3c2)c2ccccc12)C1CC1` [Example 66, 2-{cyclopropyl[1-(2-naphthylsulfonyl)-1H-indol-3-yl]methylidene}hydrazinecarboximidamide], testing at 0.01 µM gave an inhibition of 35.1%.

Take `N=C(N)NN=C(c1cn(S(=O)(=O)c2ccccc2)c2ccccc12)C1CC1` [Example 68, 2-{cyclopropyl[1-(phenylsulfonyl)-1H-indol-3-yl]methylidene}hydrazinecarboximidamide]: the inhibition at 0.01 µM was determined as 68.3%.

The molecule `CCCCS(=O)(=O)n1cc(C(=NNC(=N)N)C2CC2)c2cc(Cl)ccc21` [Example 77, 2-[[1-(butylsulfonyl)-5-chloro-1H-indol-3-yl](cyclopropyl)methylidene]hydrazinecarboximidamide] yielded an inhibition at 0.01 µM of 44.3%.

Staying with this assay, now noted: test compound dose 100 nM; [3H]-LSD 3.0 nM.
Molecule `CS(=O)(=O)n1cc(C(=NNC(=N)N)C2CC2)c2ccccc21` [Example 57, 2-{cyclopropyl[1-(methylsulfonyl)-1H-indol-3-yl]methylidene}hydrazinecarboximidamide] yielded an inhibition at 0.1 µM of 40.4%.

For the molecule `CCCCS(=O)(=O)n1cc(C(C)=NNC(=N)N)c2ccccc21` [Example 58, 2-{1-[1-(butylsulfonyl)-1H-indol-3-yl]ethylidene}hydrazinecarboximidamide], the inhibition at 0.1 µM amounted to 78.3%.

The molecule `CCCCS(=O)(=O)n1cc(C(=NNC(=N)N)C2CC2)c2ccccc21` [Example 60, 2-[[1-(butylsulfonyl)-1H-indol-3-yl](cyclopropyl)methylidene]hydrazinecarboximidamide] displayed an inhibition at 0.1 µM of 62.6%.

The molecule `COc1ccc(S(=O)(=O)n2cc(C(=NNC(=N)N)C3CC3)c3ccccc32)cc1` [Example 63, 2-(cyclopropyl{1-[(4-methoxyphenyl)sulfonyl]-1H-indol-3-yl}methylidene)hydrazinecarboximidamide] registered an inhibition at 0.1 µM of 58.9%.

In turn, `CCCCC(=NNC(=N)N)c1cn(S(=O)(=O)c2ccccc2)c2ccccc12` [Example 67, 2-{1-[1-(phenylsulfonyl)-1H-indol-3-yl]pentylidene}hydrazinecarboximidamide] registered an inhibition at 0.1 µM of 66.3%.

With `COc1ccc(S(=O)(=O)n2cc(C(C)=NNC(=N)N)c3ccccc32)cc1OC` [Example 69, 2-(1-{1-[(3,4-dimethoxyphenyl)sulfonyl]-1H-indol-3-yl}ethylidene)hydrazinecarboximidamide], testing at 0.1 µM gave an inhibition of 72.4%.

In the case of `COc1ccc(S(=O)(=O)n2cc(C(=NNC(=N)N)C3CC3)c3ccccc32)cc1OC` [Example 71, 2-(cyclopropyl{1-[(3,4-dimethoxyphenyl)sulfonyl]-1H-indol-3-yl}methylidene)hydrazinecarboximidamide], 0.1 µM produced 61.5% inhibition.

For `CC(=NNC(=N)N)c1cn(S(C)(=O)=O)c2ccc(Cl)cc12` [Example 72, 2-{1-[5-chloro-1-(methylsulfonyl)-1H-indol-3-yl]ethylidene}hydrazinecarboximidamide], the inhibition at 0.1 µM came out at 75.1%.

Molecule `CS(=O)(=O)n1cc(C(=NNC(=N)N)C2CC2)c2cc(Cl)ccc21` [Example 74, 2-[[5-chloro-1-(methylsulfonyl)-1H-indol-3-yl](cyclopropyl)methylidene]hydrazinecarboximidamide] had an inhibition at 0.1 µM of 68.5%.

In the case of `CCCCS(=O)(=O)n1cc(C(C)=NNC(=N)N)c2cc(Cl)ccc21` [Example 75, 2-{1-[1-(butylsulfonyl)-5-chloro-1H-indol-3-yl]ethylidene}hydrazinecarboximidamide], the inhibition at 0.1 µM came to 84.6%.

The molecule `COc1ccc(S(=O)(=O)n2cc(C(=NNC(=N)N)C3CC3)c3cc(Cl)ccc32)cc1` [Example 80, 2-[{5-chloro-1-[(4-methoxyphenyl)sulfonyl]-1H-indol-3-yl}(cyclopropyl)methylidene]hydrazinecarboximidamide] registered an inhibition at 0.1 µM of 74%.

The assay is the same for the next values; noted with them: test compound dose 1000 nM; [3H]-LSD 3.0 nM; read-out: % Inhibition.
`CCCCC(=NNC(=N)N)c1cn(S(C)(=O)=O)c2ccccc12` [Example 56, 2-{1-[1-(methylsulfonyl)-1H-indol-3-yl]pentylidene}hydrazinecarboximidamide]: the inhibition at 1 µM worked out at 76.9%.

As for `CCCCC(=NNC(=N)N)c1cn(S(=O)(=O)CCCC)c2ccccc12` [Example 59, 2-{1-[1-(butylsulfonyl)-1H-indol-3-yl]pentylidene}hydrazinecarboximidamide], the inhibition at 1 µM was determined as 77.7%.

For `COc1ccc(S(=O)(=O)n2cc(C(C)=NNC(=N)N)c3ccccc32)cc1` [Example 61, 2-(1-{1-[(4-methoxyphenyl)sulfonyl]-1H-indol-3-yl}ethylidene)hydrazinecarboximidamide], the inhibition at 1 µM worked out at 83.6%.

Turning to `CCCCC(=NNC(=N)N)c1cn(S(=O)(=O)c2ccc(OC)cc2)c2ccccc12` [Example 62, 2-(1-{1-[(4-methoxyphenyl)sulfonyl]-1H-indol-3-yl}pentylidene)hydrazinecarboximidamide], the inhibition at 1 µM turned out to be 68.3%.

Regarding `CC(=NNC(=N)N)c1cn(S(=O)(=O)c2ccc3ccccc3c2)c2ccccc12` [Example 64, 2-{1-[1-(2-naphthylsulfonyl)-1H-indol-3-yl]ethylidene}hydrazinecarboximidamide], the inhibition at 1 µM stood at 89.6%.

With `CCCCC(=NNC(=N)N)c1cn(S(=O)(=O)c2ccc3ccccc3c2)c2ccccc12` [Example 65, 2-{1-[1-(2-naphthylsulfonyl)-1H-indol-3-yl]pentylidene}hydrazinecarboximidamide], the inhibition at 1 µM is 62.3%.

With `CCCCC(=NNC(=N)N)c1cn(S(=O)(=O)c2ccc(OC)c(OC)c2)c2ccccc12` [Example 70, 2-(1-{1-[(3,4-dimethoxyphenyl)sulfonyl]-1H-indol-3-yl}pentylidene)hydrazinecarboximidamide], the inhibition at 1 µM was determined as 89.8%.

Turning to `CCCCC(=NNC(=N)N)c1cn(S(C)(=O)=O)c2ccc(Cl)cc12` [Example 73, 2-{1-[5-chloro-1-(methylsulfonyl)-1H-indol-3-yl]pentylidene}hydrazinecarboximidamide], the inhibition at 1 µM was determined as 71%.

Turning to `CCCCC(=NNC(=N)N)c1cn(S(=O)(=O)CCCC)c2ccc(Cl)cc12` [Example 76, 2-{1-[1-(butylsulfonyl)-5-chloro-1H-indol-3-yl]pentylidene}hydrazinecarboximidamide], the inhibition at 1 µM was determined as 74.5%.

With `COc1ccc(S(=O)(=O)n2cc(C(C)=NNC(=N)N)c3cc(Cl)ccc32)cc1` [Example 78, 2-(1-{5-chloro-1-[(4-methoxyphenyl)sulfonyl]-1H-indol-3-yl}ethylidene)hydrazinecarboximidamide], the inhibition at 1 µM amounted to 85.5%.

`CCCCC(=NNC(=N)N)c1cn(S(=O)(=O)c2ccc(OC)cc2)c2ccc(Cl)cc12` [Example 79, 2-(1-{5-chloro-1-[(4-methoxyphenyl)sulfonyl]-1H-indol-3-yl}pentylidene)hydrazinecarboximidamide]: the inhibition at 1 µM was 61%.

Regarding `CCCCC(=NNC(=N)N)c1cn(S(=O)(=O)c2ccc3ccccc3c2)c2ccc(Cl)cc12` [Example 82, 2-{1-[5-chloro-1-(2-naphthylsulfonyl)-1H-indol-3-yl]pentylidene}hydrazinecarboximidamide], the inhibition at 1 µM was determined as 46.9%.

With `N=C(N)NN=C(c1cn(S(=O)(=O)c2ccc3ccccc3c2)c2ccc(Cl)cc12)C1CC1` [Example 83, 2-[[5-chloro-1-(2-naphthylsulfonyl)-1H-indol-3-yl](cyclopropyl)methylidene]hydrazinecarboximidamide], the inhibition at 1 µM was found to be 89.3%.
